Measured values taken from patent US8541460B2, “PDK-1/Akt signaling inhibitors” (The Ohio State University, priority 2003, dated 2013).

Assays:
Assay type in all cases: cell-based
[1] = test system: sixty human tumor cell lines; test: NCI DTP screen, means over sixty human tumor cell lines; conditions: two-day treatment
Experimental: (§1) Screening of compounds 70 and 71 against several cancer cell lines The human tumor cell lines of the cancer screening panel are grown in RPMI 1640 medium containing 5% fetal bovine serum and 2 mM L-glutamine. For a typical screening experiment, cells are inoculated into 96 well microtiter plates in 100 μL at plating densities ranging from 5,000 to 40,000 cells/well depending on the doubling time of individual cell lines. After cell inoculation, the microtiter plates are incubated at 37° C., 5% CO2, 95% air and 100% relative humidity for 24 h prior to addition of experimental drugs.
(§2) After 24 h, two plates of each cell line are fixed in situ with TCA, to represent a measurement of the cell population for each cell line at the time of drug addition (Tz). Experimental drugs are solubilized in dimethyl sulfoxide at 400-fold the desired final maximum test concentration and stored frozen prior to use. At the time of drug addition, an aliquot of frozen concentrate is thawed and diluted to twice the desired final maximum test concentration with complete medium containing 50 μg/ml gentamicin. Additional four, 10-fold or ½ log serial dilutions are made to provide a total of five drug concentrations plus control. Aliquots of 100 μl of these different drug dilutions are added to the appropriate microtiter wells already containing 100 μl of medium, resulting in the required final drug concentrations.
Following drug addition, the plates are incubated for an additional 48 h at 37° C., 5% CO2, 95% air, and 100% relative humidity. For adherent cells, the assay is terminated by the addition of cold TCA. Cells are fixed in situ by the gentle addition of 50 μl of cold 50% (w/v) TCA (final concentration, 10% TCA) and incubated for 60 minutes at 4° C. […] Bound stain is subsequently solubilized with 10 mM trizma base, and the absorbance is read on an automated plate reader at a wavelength of 515 nm. […] Using the seven absorbance measurements [time zero, (Tz), control growth, (C), and test growth in the presence of drug at the five concentration levels (Ti)], the percentage growth is calculated at each of the drug concentrations levels. Percentage growth inhibition is calculated as: [(Ti−Tz)/(C−Tz)]×100 for concentrations for which Ti>/=Tz [(Ti−Tz)/Tz]×100 for concentrations for which Ti<Tz
Three dose response parameters are calculated for each experimental agent. […] The drug concentration resulting in total growth inhibition (TGI) is calculated from Ti=Tz. […] Values are calculated for each of these three parameters if the level of activity is reached; however, if the effect is not reached or is exceeded, the value for that parameter is expressed as greater or less than the maximum or minimum concentration tested. […]

HCT-116 = test: NCI DTP cell line screen (SRB), Colon Cancer
Experimental: as §1, §2
(§3) Following drug addition, the plates are incubated for an additional 48 h at 37° C., 5% CO2, 95% air, and 100% relative humidity. For adherent cells, the assay is terminated by the addition of cold TCA. Cells are fixed in situ by the gentle addition of 50 μl of cold 50% (w/v) TCA (final concentration, 10% TCA) and incubated for 60 minutes at 4° C. The supernatant is discarded, and the plates are washed five times with tap water and air dried. Sulforhodamine B (SRB) solution (100 μl) at 0.4% (w/v) in 1% acetic acid is added to each well, and plates are incubated for 10 minutes at room temperature. After staining, unbound dye is removed by washing five times with 1% acetic acid and the plates are air dried. Bound stain is subsequently solubilized with 10 mM trizma base, and the absorbance is read on an automated plate reader at a wavelength of 515 nm. For suspension cells, the methodology is the same except that the assay is terminated by fixing settled cells at the bottom of the wells by gently adding 50 μl of 80% TCA (final concentration, 16% TCA). Using the seven absorbance measurements [time zero, (Tz), control growth, (C), and test growth in the presence of drug at the five concentration levels (Ti)], the percentage growth is calculated at each of the drug concentrations levels. Percentage growth inhibition is calculated as: [(Ti−Tz)/(C−Tz)]×100 for concentrations for which Ti>/=Tz [(Ti−Tz)/Tz]×100 for concentrations for which Ti<Tz
(§4) Three dose response parameters are calculated for each experimental agent. […] The drug concentration resulting in total growth inhibition (TGI) is calculated from Ti=Tz. […] Values are calculated for each of these three parameters if the level of activity is reached; however, if the effect is not reached or is exceeded, the value for that parameter is expressed as greater or less than the maximum or minimum concentration tested.
(§5) The methods described were used to test compounds 70 and 71 on a panel of sixty cell lines under a screening service provided by the Developmental Therapeutics Program at the National Institutes of Health. Shown in FIG. 1C are 1, RPMI-8226 leukemia cells; 2; NCI-H322M non-small cell lung cancer cells; 3, HT29 colon cancer cells; 4, U251 CNS cancer cells; 5, SK-MEL-28 melanoma cancer cells; 6, SK-OV-3 ovarian cancer cells; 7, RXF 393 renal cancer cells; 8, PC-3 prostate cancer cells; 9, MDA-MB-231 breast cancer cells.

KM12 = test: NCI DTP cell line screen (SRB), Colon Cancer
Experimental: as §1, §2, §3, §4, §5

SW-620 = test: NCI DTP cell line screen (SRB), Colon Cancer
Experimental: as §1, §2, §3, §4, §5

HT29 = test: NCI DTP cell line screen (SRB), Colon Cancer
786-0 = test: NCI DTP cell line screen (SRB), Renal Cancer
Experimental: as §1, §2, §3, §4, §5

A498 = test: NCI DTP cell line screen (SRB), Renal Cancer
Experimental: as §1, §2, §3, §4, §5

SN12C = test: NCI DTP cell line screen (SRB), Renal Cancer
Experimental: as §1, §2, §3, §4, §5

TK-10 = test: NCI DTP cell line screen (SRB), Renal Cancer
Experimental: as §1, §2, §3, §4, §5

[2] = read-out: LC50 (the source's name)

SMILES: N=C(N)Nc1ccc(-n2nc(C(F)(F)F)cc2-c2ccc3c(ccc4ccccc43)c2)cc1 [Compound 71, 4-[5-(2-Phenanthrenyl)-3-(trifluoromethyl)-1H-pyrazol-1-yl]-phenyl-guanidine]
- mean TGI among the sixty cell lines [1]: 2900 nM
- GI50 ([1]; read-out: mean GI50 among the sixty cell lines): 1200 nM
- CC50 ([1]; read-out: mean LC50 among the sixty cell lines): 8500 nM
- GI50 (HCT-116): 1290 nM
- TGI (HCT-116): 2.55E−06
- Mean Optical Densities (HCT-116; Log10 Concentration −4.0): 0.058
- Percent Growth (HCT-116; Log10 Concentration −4.0): −49%
- Mean Optical Densities (HCT-116; Log10 Concentration −5.0): −0.022
- Percent Growth (HCT-116; Log10 Concentration −5.0): −100%
- Mean Optical Densities (HCT-116; Log10 Concentration −6.0): 0.525
- Percent Growth (HCT-116; Log10 Concentration −6.0): 68%
- Mean Optical Densities (HCT-116; Log10 Concentration −7.0): 0.633
- Percent Growth (HCT-116; Log10 Concentration −7.0): 86%
- Mean Optical Densities (HCT-116; Log10 Concentration −8.0): 0.607
- Percent Growth (HCT-116; Log10 Concentration −8.0): 82%
- GI50 (KM12): 1590 nM
- TGI (KM12): 2.97E−06
- Mean Optical Densities (KM12; Log10 Concentration −4.0): 0.307
- Percent Growth (KM12; Log10 Concentration −4.0): −43%
- Mean Optical Densities (KM12; Log10 Concentration −5.0): 0.013
- Percent Growth (KM12; Log10 Concentration −5.0): −98%
- Mean Optical Densities (KM12; Log10 Concentration −6.0): 1.777
- Percent Growth (KM12; Log10 Concentration −6.0): 87%
- Mean Optical Densities (KM12; Log10 Concentration −7.0): 1.832
- Percent Growth (KM12; Log10 Concentration −7.0): 91%
- Mean Optical Densities (KM12; Log10 Concentration −8.0): 1.867
- Percent Growth (KM12; Log10 Concentration −8.0): 94%
- GI50 (SW-620): 1750 nM
- TGI (SW-620): 3.13E−06
- Mean Optical Densities (SW-620; Log10 Concentration −4.0): 0.015
- Percent Growth (SW-620; Log10 Concentration −4.0): −92%
- Mean Optical Densities (SW-620; Log10 Concentration −5.0): −0.048
- Percent Growth (SW-620; Log10 Concentration −5.0): −100%
- Mean Optical Densities (SW-620; Log10 Concentration −6.0): 1.060
- Percent Growth (SW-620; Log10 Concentration −6.0): 98%
- Mean Optical Densities (SW-620; Log10 Concentration −7.0): 0.993
- Percent Growth (SW-620; Log10 Concentration −7.0): 91%
- Mean Optical Densities (SW-620; Log10 Concentration −8.0): 0.923
- Percent Growth (SW-620; Log10 Concentration −8.0): 83%
- GI50 (HT29): 1500 nM
- TGI (HT29): 2.83E−06
- Mean Optical Densities (HT29; Log10 Concentration −4.0): 0.003
- Percent Growth (HT29; Log10 Concentration −4.0): −99%
- Mean Optical Densities (HT29; Log10 Concentration −5.0): −0.054
- Percent Growth (HT29; Log10 Concentration −5.0): −100%
- Mean Optical Densities (HT29; Log10 Concentration −6.0): 1.136
- Percent Growth (HT29; Log10 Concentration −6.0): 82%
- Mean Optical Densities (HT29; Log10 Concentration −7.0): 1.238
- Percent Growth (HT29; Log10 Concentration −7.0): 91%
- Mean Optical Densities (HT29; Log10 Concentration −8.0): 1.276
- Percent Growth (HT29; Log10 Concentration −8.0): 95%
- CC50 (HT29; [2]): 5320 nM
- GI50 (786-0): 1490 nM
- TGI (786-0): 2.91E−06
- Mean Optical Densities (786-0; Log10 Concentration −4.0): 0.458
- Percent Growth (786-0; Log10 Concentration −4.0): −30%
- Mean Optical Densities (786-0; Log10 Concentration −5.0): 0.046
- Percent Growth (786-0; Log10 Concentration −5.0): −93%
- Mean Optical Densities (786-0; Log10 Concentration −6.0): 1.663
- Percent Growth (786-0; Log10 Concentration −6.0): 80%
- Mean Optical Densities (786-0; Log10 Concentration −7.0): 1.868
- Percent Growth (786-0; Log10 Concentration −7.0): 96%
- Mean Optical Densities (786-0; Log10 Concentration −8.0): 1.862
- Percent Growth (786-0; Log10 Concentration −8.0): 96%
- GI50 (A498): 16500 nM
- TGI (A498): 4.35E−05
- Mean Optical Densities (A498; Log10 Concentration −4.0): 0.540
- Percent Growth (A498; Log10 Concentration −4.0): −43%
- Mean Optical Densities (A498; Log10 Concentration −5.0): 1.903
- Percent Growth (A498; Log10 Concentration −5.0): 76%
- Mean Optical Densities (A498; Log10 Concentration −6.0): 1.869
- Percent Growth (A498; Log10 Concentration −6.0): 73%
- Mean Optical Densities (A498; Log10 Concentration −7.0): 2.087
- Percent Growth (A498; Log10 Concentration −7.0): 91%
- Mean Optical Densities (A498; Log10 Concentration −8.0): 2.413
- Percent Growth (A498; Log10 Concentration −8.0): 116%
- CC50 (A498; [2]): > 100000 nM
- GI50 (SN12C): 1570 nM
- TGI (SN12C): 2.91E−06
- Mean Optical Densities (SN12C; Log10 Concentration −4.0): 0.224
- Percent Growth (SN12C; Log10 Concentration −4.0): −62%
- Mean Optical Densities (SN12C; Log10 Concentration −5.0): −0.014
- Percent Growth (SN12C; Log10 Concentration −5.0): −100%
- Mean Optical Densities (SN12C; Log10 Concentration −6.0): 1.045
- Percent Growth (SN12C; Log10 Concentration −6.0): 87%
- Mean Optical Densities (SN12C; Log10 Concentration −7.0): 0.998
- Percent Growth (SN12C; Log10 Concentration −7.0): 78%
- Mean Optical Densities (SN12C; Log10 Concentration −8.0): 1.050
- Percent Growth (SN12C; Log10 Concentration −8.0): 88%
- GI50 (TK-10): 1320 nM
- TGI (TK-10): 2.59E−06
- Mean Optical Densities (TK-10; Log10 Concentration −4.0): 0.245
- Percent Growth (TK-10; Log10 Concentration −4.0): −64%
- Mean Optical Densities (TK-10; Log10 Concentration −5.0): −0.021
- Percent Growth (TK-10; Log10 Concentration −5.0): −100%
- Mean Optical Densities (TK-10; Log10 Concentration −6.0): 0.998
- Percent Growth (TK-10; Log10 Concentration −6.0): 71%
- Mean Optical Densities (TK-10; Log10 Concentration −7.0): 1.087
- Percent Growth (TK-10; Log10 Concentration −7.0): 90%
- Mean Optical Densities (TK-10; Log10 Concentration −8.0): 1.032
- Percent Growth (TK-10; Log10 Concentration −8.0): 78%
- CC50 (TK-10; [2]): 5090 nM
